Results taken from patent publication US20240150303A1, “DIAMINOTRIAZINE COMPOUNDS” (BASF SE, priority 2021, published 2024).
“And” between values parts separate entries of the source, which are not always exact repeats. Identical values can stand only once.

What was measured:
Assay in all cases: greenhouse pre-emergence herbicidal test
Assay type in all cases: in vivo
Amaranthus retroflexus = system: Amaranthus retroflexus
Description: (§1) The seeds of the test plants were sown separately for each species. For the pre-emergence treatment, the active ingredients, which had been suspended or emulsified in water, were applied directly after sowing by means of finely distributing nozzles. The containers were irrigated gently to promote germination and growth and subsequently covered with transparent plastic hoods until the plants had rooted. This cover caused uniform germination of the test plants, unless this had been impaired by the active ingredients. […] The test period extended over 2 to 4 weeks. During this time, the plants were tended, and their response to the individual treatments was evaluated. Evaluation was carried out using a scale from 0 to 100. 100 means no emergence of the plants, or complete destruction of at least the aerial moieties, and 0 means no damage, or normal course of growth. A moderate herbicidal activity is given at values of at least 60, a good herbicidal activity is given at values of at least 70, and a very good herbicidal activity is given at values of at least 85. The plants used in the greenhouse experiments were of the following species: [table]

Setaria faberi = system: Setaria faberi
Description: as §1

Alopercurus myosuroides = system: Alopercurus myosuroides
Description: (§2) The culture containers used were plastic flowerpots containing loamy sand with approximately 3.0% of humus as the substrate. The seeds of the test plants were sown separately for each species.
(§3) For the pre-emergence treatment, the active ingredients, which had been suspended or emulsified in water, were applied directly after sowing by means of finely distributing nozzles.
(§4) The containers were irrigated gently to promote germination and growth and subsequently covered with transparent plastic hoods until the plants had rooted. This cover caused uniform germination of the test plants, unless this had been impaired by the active ingredients.
(§5) Depending on the species, the plants were kept at 10-25° C. or 20-35° C., respectively.
(§6) The test period extended over 2 to 4 weeks. During this time, the plants were tended, and their response to the individual treatments was evaluated.
(§7) Evaluation was carried out using a scale from 0 to 100. 100 means no emergence of the plants, or complete destruction of at least the aerial moieties, and 0 means no damage, or normal course of growth. A moderate herbicidal activity is given at values of at least 60, a good herbicidal activity is given at values of at least 70, and a very good herbicidal activity is given at values of at least 85.
(§8) The plants used in the greenhouse experiments were of the following species: […]

Echinocloa crus-galli = system: Echinocloa crus-galli
Description: as §1

Abutilon theophrasti = system: Abutilon theophrasti
Description: as §2, §3, §4, §5, §6, §7, §8

Digitaria sanguinalis = system: Digitaria sanguinalis
Description: as §2, §3, §4, §5, §6, §7, §8

## COc1c(Br)cc(Cl)c(C)c1Nc1nc(N)nc(C(C)(F)CCl)n1 (racemic) [Example 98]
Amaranthus retroflexus; 62 g/ha
  herbicidal activity: 100%
Setaria faberi; 62 g/ha
  herbicidal activity: 100%
Alopercurus myosuroides; 62 g/ha
  herbicidal activity: 100%

## COc1c(Cl)cc(Cl)c(Cl)c1Nc1nc(N)nc(C(C)(C)F)n1 [Example 2]
Amaranthus retroflexus; 250 g/ha
  herbicidal activity: 100%
Echinocloa crus-galli; 62.5 g/ha
  herbicidal activity: 100%
Echinocloa crus-galli; 250 g/ha
  herbicidal activity: 100%
Setaria faberi; 250 g/ha
  herbicidal activity: 100%
Abutilon theophrasti; 62.5 g/ha
  herbicidal activity: 100%
Digitaria sanguinalis; 62.5 g/ha
  herbicidal activity: 100%

## COc1c(F)ccc(Br)c1Nc1nc(N)nc(C(C)(C)F)n1 [Example 3, N4-(6-bromo-3-fluoro-2-methoxy-phenyl)-6-(1-fluoro-1-methyl-ethyl)-1,3,5-triazine-2,4-diamine]
Amaranthus retroflexus; 250 g/ha
  herbicidal activity: 100%
Echinocloa crus-galli; 62.5 g/ha
  herbicidal activity: 100%
Setaria faberi; 250 g/ha
  herbicidal activity: 100%
Abutilon theophrasti; 62.5 g/ha
  herbicidal activity: 100%
Abutilon theophrasti; 250 g/ha
  herbicidal activity: 100%
Digitaria sanguinalis; 62.5 g/ha
  herbicidal activity: 100%

## COc1c(Br)ccc(Cl)c1Nc1nc(N)nc(C(C)(C)F)n1 [Example 4]
Amaranthus retroflexus; 250 g/ha
  herbicidal activity: 100%
Echinocloa crus-galli; 62.5 g/ha
  herbicidal activity: 100%
Echinocloa crus-galli; 250 g/ha
  herbicidal activity: 100%
Setaria faberi; 250 g/ha
  herbicidal activity: 100%
Abutilon theophrasti; 62.5 g/ha
  herbicidal activity: 100%
Digitaria sanguinalis; 62.5 g/ha
  herbicidal activity: 100%

## COc1c(F)cc(Br)c(C)c1Nc1nc(N)nc(C(C)(C)F)n1 [Example 5]
Amaranthus retroflexus; 250 g/ha
  herbicidal activity: 100%
Echinocloa crus-galli; 250 g/ha
  herbicidal activity: 100% and 85%
Setaria faberi; 250 g/ha
  herbicidal activity: 100%
Abutilon theophrasti; 250 g/ha
  herbicidal activity: 90%
Digitaria sanguinalis; 250 g/ha
  herbicidal activity: 100%

## COc1c(F)cc(Cl)c(C)c1Nc1nc(N)nc(C(C)(C)F)n1 [Example 7]
Amaranthus retroflexus; 32 g/ha
  herbicidal activity: 100%
Echinocloa crus-galli; 125 g/ha
  herbicidal activity: 100%
Setaria faberi; 125 g/ha
  herbicidal activity: 100%
Abutilon theophrasti; 32 g/ha
  herbicidal activity: 100%
Abutilon theophrasti; 125 g/ha
  herbicidal activity: 100%
Digitaria sanguinalis; 32 g/ha
  herbicidal activity: 100%

## COc1c(F)cc(F)c(C)c1Nc1nc(N)nc(C(C)(C)F)n1 [Example 8]
Amaranthus retroflexus; 32 g/ha
  herbicidal activity: 100%
Echinocloa crus-galli; 125 g/ha
  herbicidal activity: 100%
Setaria faberi; 125 g/ha
  herbicidal activity: 100%
Abutilon theophrasti; 32 g/ha
  herbicidal activity: 100%
Abutilon theophrasti; 125 g/ha
  herbicidal activity: 100%
Digitaria sanguinalis; 32 g/ha
  herbicidal activity: 100%

## COc1c(Cl)cc(F)c(Cl)c1Nc1nc(N)nc(C(C)(C)F)n1 [Example 10]
Amaranthus retroflexus; 32 g/ha
  herbicidal activity: 100%
Amaranthus retroflexus; 250 g/ha
  herbicidal activity: 100%
Setaria faberi; 250 g/ha
  herbicidal activity: 100%
Abutilon theophrasti; 32 g/ha
  herbicidal activity: 100%
Abutilon theophrasti; 250 g/ha
  herbicidal activity: 100%
Digitaria sanguinalis; 32 g/ha
  herbicidal activity: 100%

## COc1c(Cl)cc(F)c(Br)c1Nc1nc(N)nc(C(C)(C)F)n1 [Example 11]
Amaranthus retroflexus; 32 g/ha
  herbicidal activity: 100%
Echinocloa crus-galli; 250 g/ha
  herbicidal activity: 100%
Setaria faberi; 250 g/ha
  herbicidal activity: 100%
Abutilon theophrasti; 32 g/ha
  herbicidal activity: 100%
Alopercurus myosuroides; 250 g/ha
  herbicidal activity: 100%
Digitaria sanguinalis; 32 g/ha
  herbicidal activity: 100%

## COc1c(Cl)cc(Br)c(Cl)c1Nc1nc(N)nc(C(C)(C)F)n1 [Example 12]
Amaranthus retroflexus; 250 g/ha
  herbicidal activity: 100%
Echinocloa crus-galli; 250 g/ha
  herbicidal activity: 100%
Setaria faberi; 250 g/ha
  herbicidal activity: 100%
Abutilon theophrasti; 250 g/ha
  herbicidal activity: 100%
Alopercurus myosuroides; 250 g/ha
  herbicidal activity: 100%

## COc1c(F)cc(F)c(Br)c1Nc1nc(N)nc(C(C)(C)F)n1 [Example 13]
Amaranthus retroflexus; 31 g/ha
  herbicidal activity: 100%
Echinocloa crus-galli; 31 g/ha
  herbicidal activity: 100%
Echinocloa crus-galli; 62.5 g/ha
  herbicidal activity: 100%
Setaria faberi; 62.5 g/ha
  herbicidal activity: 100%
Abutilon theophrasti; 31 g/ha
  herbicidal activity: 100%
Alopercurus myosuroides; 62.5 g/ha
  herbicidal activity: 100%

## COc1c(C)ccc(C)c1Nc1nc(N)nc(C(C)(C)F)n1 [Example 14]
Amaranthus retroflexus; 62 g/ha
  herbicidal activity: 100%
Echinocloa crus-galli; 62 g/ha
  herbicidal activity: 100%
Echinocloa crus-galli; 125 g/ha
  herbicidal activity: 98%
Setaria faberi; 125 g/ha
  herbicidal activity: 100%
Abutilon theophrasti; 62 g/ha
  herbicidal activity: 100%
Alopercurus myosuroides; 125 g/ha
  herbicidal activity: 98%

## COc1c(F)cc(F)c(C(F)(F)F)c1Nc1nc(N)nc(C(C)(C)F)n1 [Example 19]
Amaranthus retroflexus; 62.5 g/ha
  herbicidal activity: 100%
Echinocloa crus-galli; 62 g/ha
  herbicidal activity: 100%
Echinocloa crus-galli; 62.5 g/ha
  herbicidal activity: 100%
Setaria faberi; 62 g/ha
  herbicidal activity: 100%
Abutilon theophrasti; 62.5 g/ha
  herbicidal activity: 100%
Alopercurus myosuroides; 62 g/ha
  herbicidal activity: 100%

## COc1c(Cl)ccc(Cl)c1Nc1nc(N)nc(C(C)(C)F)n1 [Example 20]
Amaranthus retroflexus; 62.5 g/ha
  herbicidal activity: 100%
Echinocloa crus-galli; 62 g/ha
  herbicidal activity: 100%
Echinocloa crus-galli; 62.5 g/ha
  herbicidal activity: 100%
Setaria faberi; 62 g/ha
  herbicidal activity: 100%
Abutilon theophrasti; 62.5 g/ha
  herbicidal activity: 100%
Alopercurus myosuroides; 62 g/ha
  herbicidal activity: 100%

## CC#CCOc1c(Br)cc(F)c(C)c1Nc1nc(N)nc(C(C)(C)F)n1 [Example 21]
Amaranthus retroflexus; 62.5 g/ha
  herbicidal activity: 95%
Echinocloa crus-galli; 62 g/ha
  herbicidal activity: 100%
Echinocloa crus-galli; 62.5 g/ha
  herbicidal activity: 100%
Setaria faberi; 62 g/ha
  herbicidal activity: 100%
Setaria faberi; 62.5 g/ha
  herbicidal activity: 100%
Alopercurus myosuroides; 62 g/ha
  herbicidal activity: 100%
